The text below walks through data of publication PMC6108835, “Target-Based Discovery of an Inhibitor of the Regulatory Phosphatase PPP1R15B” (Cell, 2018).

One data set deals with T1, R15B-PP1c (Homo sapiens, UniProt Q5SWA1).
T1 construct: cDNAs encoding amino acids 325-636 of R15A and 340-698 of R15B were cloned into pMAL-c5x; made in house; host or cells: E. coli (R15 and eIF2α: BL21-Gold (DE3) pLysS; PP1: BL21/pGro7)
Kind of data set: Selective holophosphatase activity assay, eIF2α dephosphorylation by R15B-PP1c. Type of data set: biochemical. The following applies: Raphin1 100 μM, 30°C, 16 hr. On the procedure:
The assay was performed as previously described ([Carrara et al., 2017]). Dephosphorylation experiments were carried out in dephosphorylation buffer (50 mM Tris pH 7.4, 1.5 mM EGTA pH 8.0, 2 mM MnCl2), and all proteins were diluted to the appropriate concentration in dephosphorylation buffer. PP1c was diluted to 10 nM, R15s were diluted to 50 nM and P-eIF2α was diluted to 1 μM. Proteins were mixed as appropriate, and Raphin1 at 100 μM or DMSO vehicle control were added. Reactions were incubated at 30°C for 16 hr. 4% SDS-Laemmli sample buffer was added to stop the reactions. Samples were loaded on 4%–12% NuPAGE Bis-Tris gels (ThermoFisher Scientific), diluted 1-fold, and analyzed by immunoblotting using anti-Phospho-eIF2α (Ser51) (Cell Signaling (#9721); […]) and total anti-eIF2α (AbCam (#ab26197); 1:1,000) antibodies.

In another data set the target is T2, R15A^325–636 (Homo sapiens, UniProt O75807).
T2 construct: made in house; host or cells: E. coli BL21-Gold (DE3) pLysS
Put plainly: eIF2α pull down with MBP-tagged R15A. The class given is biochemical. The following applies: Raphin1 200 μM, P-eIF2α 1 μM. On the procedure: Recombinant eIF2α was produced as described in [Ito et al. (2004)] and pull down experiments were carried out as previously described ([Carrara et al., 2017]). Amylose beads (New England BioLabs) were pre-equilibrated with interaction buffer (50 mM Tris pH 7.4, 200 mM NaCl, 0.05% Tween20). 20 μL amylose beads were incubated with purified MBP-tagged R15s (200 nM), P-eIF2α (1 μM) as appropriate, plus 200 μM Raphin1, or DMSO vehicle in a total volume of 200 μL. Input samples (5%) was removed at this step, and added to 4% SDS-Laemmli sample buffer. Beads were incubated for 10 min at 4°C with 20 rpm gentle rotation. The beads were washed 5 × 1 mL with interaction buffer, transferred to a fresh tube and finally resuspended with 50 μL 4% SDS-Laemmli sample buffer. Eluded beads were boiled and then run on 4%–12% NuPAGE Bis-Tris gels (ThermoFisher Scientific). Anti-MBP HRP (New England BioLabs (#E8038); 1:5,000) (to probe for R15s) and anti-eIF2α (AbCam (#ab26197); 1:1,000) antibodies were used for immunoblotting analyses of samples.

Data set [1] is described as follows: Glucose tolerance test in wild-type mice. The class given is in vivo, mouse. The following applies: 2 mg/kg daily for 8 weeks. The procedure: Treatment- and test-naive 4 weeks old C3H/B6 males were used. Raphin1 was administered to mice daily for 8 weeks before the test. After the overnight 14 hr starvation mice were injected intraperitoneally with D-glucose (Sigma-Aldrich) at 2 g glucose/kg body weight. Right before and at the indicated time points after the injection blood samples were collected from the tail vein and the blood glucose concentration was determined using The Accu-Chek Aviva Blood Glucose Meter (Roche).

For another data set, the system named is wild-type mice. Kind of data set: Fear conditioning. The following applies: 2 mg/kg for 3 weeks. Type of data set: in vivo, mouse. On the procedure: Morris water maze and the following fear conditioning were performed on C57BL/6J wild-type males aged 2.5 months. Mice were treatment- and test-naive before the treatment started. Treatment with Raphin1 started two weeks before and was continued during the behavioral tests.
Testing was performed in polymodal operant chambers (Coulbourn Instruments, Allentown, PA, USA). Each chamber (18.5 × 18 × 21.5 cm) consisted of aluminum side walls and Plexiglas rear and front (the door) walls. A loudspeaker and a bright light constituted the sources of the cues during conditioning and cue-testing. The general activity of animals was recorded through the infrared cell placed at the ceiling of the chambers and was directly recorded using the Graphic State software (Coulbourn). For conditioning, mice were allowed to acclimate for 4 min, then a light/tone (10 kHz) – Conditioned Stimulus (CS) was presented for 20 s and co-terminated by a mild (1 s, 0.4 mA) footshock – an aversive Unconditioned Stimulus (US). Mice were returned to their home cages 2 min later. Testing was performed 24 hr following conditioning session. Testing for the context was performed in the morning. […] For both context and cue testing the percentage of time spent in the immobile position (% Freezing) was scored as an indicator of fear memory.

The next data set deals with R15A (Homo sapiens, UniProt O75807). Put plainly: Limited trypsin digestion of R15A. The following applies: R15 3 μM, compound 100 μM, trypsin 5 nM, 5 min, 22°C. On the set-up: cDNAs encoding amino acids 325-636 of R15A and 340-698 of R15B were cloned into pMAL-c5x; made in house; host or cells: E. coli BL21-Gold (DE3) pLysS. On the procedure: Reactions were initiated by addition of 5 nM of trypsin from bovine pancreas (Sigma-Aldrich), made up in PBS, and allowed to proceed for 5 min at 22°C, with shaking at 350 rpm. […] Proteins were visualized by staining with InstantBlue Protein Stain (Expedeon).

Another data set deals with PP1c (Homo sapiens, UniProt P36873). Kind of data set: SPR, compounds binding to PP1c alone immobilized on streptavidin chip. The following applies: PP1c immobilized on SA chip. On the set-up: cDNA encoding for human PP1cγ (aa 1-322) was cloned into two baculovirus transfer vectors; made in house; host or cells: Sf9 insect cells (baculovirus). The procedure: Small molecules were stored as 50 mM stock solutions in 100% DMSO. […] If necessary the concentration range was adjusted to accurately determine the KD depending on the initial results. […] This was followed by 1 min stabilization period, to wash off any unspecific binding. […] After each dilution series, the surface was regenerated using 3 M NaCl for 90 s. […] In order to be able to correct for small variations in DMSO concentration between samples, eight solvent samples ranging from 0.06 to 8% DMSO were injected every 50th cycle. The flow cell temperature was 20°C.
Sequence of PP1c (P36873 1-322): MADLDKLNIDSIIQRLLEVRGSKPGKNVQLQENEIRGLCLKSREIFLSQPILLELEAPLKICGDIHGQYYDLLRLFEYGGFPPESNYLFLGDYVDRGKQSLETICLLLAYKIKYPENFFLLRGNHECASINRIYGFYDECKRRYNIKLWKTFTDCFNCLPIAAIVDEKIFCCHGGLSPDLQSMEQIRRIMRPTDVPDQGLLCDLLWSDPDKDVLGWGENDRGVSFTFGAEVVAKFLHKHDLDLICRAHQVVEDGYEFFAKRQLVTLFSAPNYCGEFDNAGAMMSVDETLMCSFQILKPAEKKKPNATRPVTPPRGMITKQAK

Sequence of R15A (O75807 325-636, stated change not applied): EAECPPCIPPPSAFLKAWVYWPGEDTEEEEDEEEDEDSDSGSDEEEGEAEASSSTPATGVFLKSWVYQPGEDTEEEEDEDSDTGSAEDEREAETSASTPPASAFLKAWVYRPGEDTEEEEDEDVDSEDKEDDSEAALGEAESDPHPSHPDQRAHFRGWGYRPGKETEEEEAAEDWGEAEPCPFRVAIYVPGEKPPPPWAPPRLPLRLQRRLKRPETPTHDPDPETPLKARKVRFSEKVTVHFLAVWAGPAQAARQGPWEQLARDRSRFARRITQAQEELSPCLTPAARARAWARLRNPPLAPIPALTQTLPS
T2 sequence (O75807 325-636, stated change not applied): as above
T1 sequence (Q5SWA1 340-698): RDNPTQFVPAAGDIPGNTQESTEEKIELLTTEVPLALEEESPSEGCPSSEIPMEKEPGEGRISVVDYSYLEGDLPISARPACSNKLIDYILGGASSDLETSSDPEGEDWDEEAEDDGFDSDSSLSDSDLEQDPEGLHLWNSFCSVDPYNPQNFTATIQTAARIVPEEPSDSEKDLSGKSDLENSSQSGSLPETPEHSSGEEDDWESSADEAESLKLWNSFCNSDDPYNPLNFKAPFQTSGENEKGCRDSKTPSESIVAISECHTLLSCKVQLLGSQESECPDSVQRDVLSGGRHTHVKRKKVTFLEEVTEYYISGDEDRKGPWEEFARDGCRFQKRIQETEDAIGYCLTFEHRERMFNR
T1 sequence (P62136 7-330 partner limits assumed): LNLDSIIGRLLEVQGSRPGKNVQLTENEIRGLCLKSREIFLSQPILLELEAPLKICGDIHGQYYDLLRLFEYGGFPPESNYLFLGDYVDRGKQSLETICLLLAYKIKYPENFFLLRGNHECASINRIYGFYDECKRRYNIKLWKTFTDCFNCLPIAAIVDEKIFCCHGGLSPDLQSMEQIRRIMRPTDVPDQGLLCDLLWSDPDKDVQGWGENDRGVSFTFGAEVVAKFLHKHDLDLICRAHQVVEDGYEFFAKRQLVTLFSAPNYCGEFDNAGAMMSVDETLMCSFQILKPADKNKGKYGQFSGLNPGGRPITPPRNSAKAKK

For `[H]/N=C(\N)NN=Cc1cccc(Cl)c1Cl` [Raphin1, (E)-2-(2,3-dichlorobenzylidene)hydrazine-1-carboximidamide], on R15B-PP1c, the “Dephosphorylation of eIF2α by R15B-PP1c” value was “inhibited”. Besides, the “Recruitment of eIF2α to R15A” value at R15A^325–636 is recorded as “no such effect”. Further, the “Adverse effects on glucose tolerance” value in data set [1] is “no obvious adverse effects”. Moreover, the “Adverse effects on memory, fear-conditioning paradigm” value in the data set with wild-type mice was “no adverse effects”. On R15A, the “Protease sensitivity of R15A (limited proteolysis, conformational change)” value is “no effect”. For the same molecule, the “Binding to PP1c alone (in words)” value at PP1c is on record as “did not bind”.
